Paper PMC10771525 (Communications Biology, 2024)
Where a SMILES comes first, the peptide text is derived from it. [ ]: non-standard residue; d: D form.

Columns and labels:
PTGIR = PTGIR (Homo sapiens, UniProt P43119); assay: GPCR panel (control), Arrestin, CHO-K1; format: cell-based; conditions: reference agonist
CCR6 = assay: GPCR panel (control), Arrestin, CHO-K1; format: cell-based, human; conditions: reference agonist
CCR2 = assay: GPCR panel (control), Arrestin, CHO-K1; format: cell-based, human; conditions: reference agonist
TBXA2R = assay: GPCR panel (control), Arrestin, U2OS; format: cell-based, human; conditions: reference agonist
CXCR5 = assay: GPCR panel (control), Arrestin, CHO-K1; format: cell-based, human; conditions: reference agonist
CXCR3 = assay: GPCR panel (control), Arrestin, CHO-K1; format: cell-based, human; conditions: reference agonist
P2RY12 = assay: GPCR panel (control), Arrestin, CHO-K1; format: cell-based, human; conditions: reference agonist
ADORA3 = assay: GPCR panel (control), Arrestin, CHO-K1; format: cell-based, human; conditions: reference agonist
OPRD1 = molecular target: T1, OPRD1 (Homo sapiens, UniProt P41143); assay: GPCR panel (control), Arrestin, CHO-K1; format: cell-based; conditions: reference agonist
T1 construct: expressed in transfected cells; host or cells: CHO-K1

CRTH2 = CRTH2 (Homo sapiens, UniProt Q9Y5Y4); assay: GPCR panel (control), Arrestin, U2OS; format: cell-based; conditions: reference agonist
CCR5 = assay: GPCR panel (control), Arrestin, CHO-K1; format: cell-based, human; conditions: reference agonist
CXCR1 = assay: GPCR panel (control), Arrestin, U2OS; format: cell-based, human; conditions: reference agonist
CXCR2 = assay: GPCR panel (control), Arrestin, HEK-293; format: cell-based, human; conditions: reference agonist, CXCR2, HEK-293, Arrestin
P2RY11 = assay: GPCR panel (control), Arrestin, CHO-K1; format: cell-based, human; conditions: reference agonist
P2RY2 = assay: GPCR panel (control), Arrestin, U2OS; format: cell-based, human; conditions: reference agonist
P2RY4 = assay: GPCR panel (control), Arrestin, CHO-K1; format: cell-based, human; conditions: reference agonist
P2RY6 = assay: GPCR panel (control), Arrestin, CHO-K1; format: cell-based, human; conditions: reference agonist
ADRA2A = conditions: reference agonist, CHO-K1, Arrestin
ADRA2C = conditions: reference agonist, CHO-K1, Arrestin

Chain of CRTH2 (Q9Y5Y4 whole entry): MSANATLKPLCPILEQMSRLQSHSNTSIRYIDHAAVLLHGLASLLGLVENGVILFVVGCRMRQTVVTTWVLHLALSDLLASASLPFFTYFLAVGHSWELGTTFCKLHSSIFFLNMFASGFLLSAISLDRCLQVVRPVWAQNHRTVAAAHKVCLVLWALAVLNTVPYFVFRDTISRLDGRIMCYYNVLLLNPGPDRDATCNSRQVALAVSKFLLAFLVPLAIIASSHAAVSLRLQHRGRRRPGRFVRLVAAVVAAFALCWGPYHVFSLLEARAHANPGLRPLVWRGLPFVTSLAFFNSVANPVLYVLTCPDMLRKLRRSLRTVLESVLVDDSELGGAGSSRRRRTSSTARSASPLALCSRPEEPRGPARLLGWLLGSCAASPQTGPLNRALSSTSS
Chain of PTGIR (P43119 1-383): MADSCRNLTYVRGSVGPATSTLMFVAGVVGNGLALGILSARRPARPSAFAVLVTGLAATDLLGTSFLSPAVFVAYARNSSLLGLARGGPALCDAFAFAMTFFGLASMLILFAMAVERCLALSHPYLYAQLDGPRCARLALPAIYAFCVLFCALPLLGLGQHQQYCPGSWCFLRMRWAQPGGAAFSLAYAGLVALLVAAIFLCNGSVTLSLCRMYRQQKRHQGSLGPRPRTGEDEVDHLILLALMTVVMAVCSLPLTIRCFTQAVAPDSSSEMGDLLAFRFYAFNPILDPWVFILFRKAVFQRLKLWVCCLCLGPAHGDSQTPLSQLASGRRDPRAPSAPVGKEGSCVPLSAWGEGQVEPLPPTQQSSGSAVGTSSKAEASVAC
T1 sequence (P41143 whole entry): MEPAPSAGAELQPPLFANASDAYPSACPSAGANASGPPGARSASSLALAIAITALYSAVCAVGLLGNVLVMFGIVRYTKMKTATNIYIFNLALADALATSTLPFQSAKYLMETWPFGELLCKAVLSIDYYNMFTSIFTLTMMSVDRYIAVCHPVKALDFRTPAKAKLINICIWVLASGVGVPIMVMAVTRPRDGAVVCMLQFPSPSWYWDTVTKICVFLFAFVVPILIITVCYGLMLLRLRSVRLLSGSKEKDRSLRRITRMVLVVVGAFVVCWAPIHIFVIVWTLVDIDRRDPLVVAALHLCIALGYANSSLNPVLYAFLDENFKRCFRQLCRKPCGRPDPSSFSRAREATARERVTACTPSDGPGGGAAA

CC#CCC(C)[C@H](O)/C=C/[C@@H]1[C@H]2c3cccc(CCCC(=O)O)c3O[C@H]2C[C@H]1O (mixture of isomers) [Beraprost]
EC50 (PTGIR): 0.39 µM
EC80 (PTGIR): 18 µM

CCL20
EC50 (CCR6): 0.0062 µM
EC80 (CCR6): 0.71 µM

CCL2
EC50 (CCR2): 0.0031 µM
EC80 (CCR2): 0.2 µM

O=C(O)CCC/C=C\C[C@@H]1[C@@H](/C=C/[C@@H](O)COc2ccc(I)cc2)[C@H]2CC[C@@H]1O2 [I-BOP]
EC50 (TBXA2R): 0.12 µM
EC80 (TBXA2R): 2.4 µM

CXCL13
EC50 (CXCR5): 0.024 µM
EC80 (CXCR5): 1.2 µM

CXCL11
EC50 (CXCR3): 0.0093 µM
EC80 (CXCR3): 0.28 µM

CSc1nc(N)c2ncn([C@@H]3O[C@H](COP(=O)(O)OP(=O)(O)O)[C@@H](O)[C@H]3O)c2n1 [2-methylthio-ADP]
EC50 (P2RY12): 0.0026 µM
EC80 (P2RY12): 0.058 µM

CSCC[C@H](NC(=O)[C@H](CC(C)C)NC(=O)[C@H](Cc1cnc[nH]1)NC(=O)[C@H](Cc1ccccc1)NC(=O)[C@@H](CCSC)NC(=O)[C@@H](N)Cc1ccc(O)cc1)C(=O)N[C@@H](CC(=O)O)C(N)=O [Deltorphin A] (H-Y[dM]FHLMD-NH2)
EC50 (OPRD1): 0.0023 µM
EC80 (OPRD1): 0.054 µM

CCCCC[C@H](O)/C=C/[C@H]1C(=O)C[C@H](O)[C@@H]1C/C=C\CCCC(=O)O [Prostaglandin D2]
EC50 (CRTH2): 0.021 µM
EC80 (CRTH2): 1.2 µM

CCL3
EC50 (CCR5): 0.0072 µM
EC80 (CCR5): 0.31 µM

Interleukin-8
EC50 (CXCR1): 0.0017 µM
EC80 (CXCR1): 0.3 µM
EC50 (CXCR2): 0.0011 µM
EC80 (CXCR2): 0.23 µM

Nc1ncnc2c1ncn2[C@@H]1O[C@H](COP(=O)(O)OP(=O)(O)OP(=O)(O)O)[C@@H](O)[C@H]1O [ATP]
EC50 (P2RY11): 350 µM
EC80 (P2RY11): 13000 µM

O=c1ccn([C@@H]2O[C@H](COP(=O)(O)OP(=O)(O)OP(=O)(O)O)[C@@H](O)[C@H]2O)c(=O)[nH]1 [UTP]
EC50 (P2RY2): 0.42 µM
EC80 (P2RY2): 12 µM
EC50 (P2RY4): 0.11 µM
EC80 (P2RY4): 3.3 µM
EC50 (P2RY6): 0.1 µM
EC80 (P2RY6): 2.7 µM
